Source: patent publication US12728109B2, “Method of increasing the population of Dialister spp. in the gut microbiome” (DSM IP ASSETS B.V., priority 2020, dated 2026)

Legend:
[1] = system: Dialister; assay: In vitro fermentation study 2: intestinal batch fermentation with fecal suspension, 16S rRNA Illumina sequencing and flow cytometry; format: cell-based, Dialister spp.; settings: fermentation supernatant at 24 h, donor C, FIG. 1B
Method: At the start of this intestinal batch fermentation incubation, all test ingredients were added from stock solutions to the modified nutritional medium, containing (g/l): 2.5 K2HPO4, 10.9 KH2PO4, 2 NaHCO3, 2 yeast extract, 2 peptone, 1 mucin, 0.5 cystein, 2 Tween 80, 2 glucose, 2 starch, 2 cellobiose, 0.1 NaCl, 0.01 MgSO4·7H2O, 0.01 CaCl2·6H2O, 0.05 hemin, 0.5 bile salts.
The following compounds were added from stock solutions prepared in water: • Beta-carotene, • Vitamin B3, • Vitamin B5, • Vitamin B7, • Fructooligosaccharides (positive control)
As a source of the microbial community, freshly prepared fecal suspension from a donor was added to the reactors. […] All tests, except the blanks, were performed in single repetition. Incubation conditions were 48 h at 37° C., under shaking (90 rpm) and anaerobic conditions.
Microbial composition: Illumina sequencing was performed at the start and after 24 h of incubation. The technique targets the 16S rRNA gene that consists of variable and conserved regions, spread over the gene. Due to their key role in protein expression, the conserved regions are characterized by very low evolutionary rates.
The methodology applied involves primers that span 2 hypervariable regions (V3-V4) of the 16S rRNA gene. Using a pair-end sequencing approach, sequencing of 2×250 bp results in 424 bp amplicons. Such fragments are taxonomically more informative as compared to smaller fragments. Samples that were analyzed with Illumina sequencing were also analyzed with flow cytometry to determine the number of total bacterial cells, thus allowing to convert the proportional values obtained with Illumina into absolute quantities. Samples were analyzed on a BDFacs verse. The samples were run using the high flow rate. Bacterial cells were separated from medium debris and signal noise by applying a threshold level of 200 on the SYTO channel. Proper parent and daughter gates were set to determine all populations.

[2] = system: Dialister; assay: In vitro fermentation study 1: intestinal batch fermentation with fecal suspension, shotgun metagenome sequencing; format: cell-based, Dialister spp.; settings: fermentation supernatant at 24 hours; all tested concentrations (0.2x, 1x, 5x); FIG. 1A
Method: At the start of this intestinal batch fermentation incubation, all test ingredients were added from stock solutions to the modified nutritional medium, containing (g/l): 2.5 K2HPO4, 10.9 KH2PO4, 2 NaHCO3, 2 yeast extract, 2 peptone, 1 mucin, 0.5 cysteine, 2 Tween 80, 2 glucose, 2 starch, 2 cellobiose, 0.1 NaCl, 0.01 MgSO4·7H2O, 0.01 CaCl2·6H2O, 0.05 hemin, 0.5 bile salts.
The following compounds were added from stock solutions prepared in water for vitamin B2 and B9, and in ethanol for vitamin K1, DHA and EPA:
Each compound was tested in three different concentrations. As a source of the microbial community, freshly prepared fecal suspension from a donor was added to the reactors. […] All tests, except the blanks, were performed in single repetition. Incubation conditions were 48 h at 37° C., under shaking (90 rpm) and anaerobic conditions.
Microbial composition: Total DNA was extracted from all fermentation samples collected throughout the study using the QIAamp DNA stool minikit (Qiagen, Crawley, United Kingdom) according to the manufacturer's instructions, apart from addition of a bead-beating step and increasing the lysis temperature to 95° C. as described previously. After DNA isolation, DNA was quantified using the Qubit High Sensitivity DNA assay (Thermo Fisher). Whole metagenome libraries were then prepared using the Illumina Nextera XT kit (Illumina) in accordance with the manufacturer's instructions, with the following modifications: Firstly, tagmentation time was increased to 7 min and secondly, following incorporation of indices and Ampure purification of the products, the samples were each individually sized by running on an Agilent High Sensitivity Chip (Agilent) and quantified using the Qubit High Sensitivity DNA assay (Thermo Fisher) in accordance with Teagasc Sequencing Platform SOPs. […] Delivered raw FASTQ sequence files were quality checked as follows: poor quality and duplicate read removal, as well as trimming was implemented using a combination of SAM and Picard tools. Taxonomy was assigned to the reads using the Metaphlan2 software.

[3] = system: fecal Dialister; assay: Clinical study: randomized, double-blind, placebo-controlled study of colon-targeted vitamins, fecal microbial composition; format: in vivo; settings: human, colon-release capsule once daily for four weeks, fecal samples; FIG. 1C
Excerpt: Twelve participants were allocated to each of the six vitamin groups, and 24 participants allocated to the placebo group. All 96 participants completed the intervention. To be considered eligible for enrollment into the study, participants have to be able to give written informed consent; be aged between 20 and 50 years of age; have a BMI of between 18.5-30 Kg/m2; have a stable body weight (<5% change) over the past 3-months; be in generally good health, as determined by the investigator; have not consumed dietary supplements, prebiotic, probiotic, dietary or fiber-rich supplements within 4 weeks prior to baseline visit and be willing to avoid these supplements until the end of the study; be willing to avoid liver consumption for the duration for the study, be willing to maintain their current level of physical activity for the duration of the study; and be willing to consume the IP daily for the duration of the study. […] Before the randomization visit, participants food frequency questionnaires were analyzed to ensure their typical fiber intake is <30 g fiber/day. […] At the baseline visit (Visit 2), participants retuned a fecal samples collected in the previous 48 hours and eligibility was assessed. […] Participants returned their IP and compliance was assessed. […]

| Molecule | Dialister relative abundances compared to control ([1]; all tested concentrations) | Dialister relative abundances compared to control [2] | other results |
| --- | --- | --- | --- |
| CC1=C(/C=C/C(C)=C/C=C/C(C)=C/C=C/C=C(C)/C=C/C=C(C)/C=C/C2=C(C)CCCC2(C)C)C(C)(C)CCC1 [beta-carotene, Beta-carotene] | increase |  |  |
| Cc1cc2nc3c(=O)[nH]c(=O)nc-3n(C[C@H](O)[C@H](O)[C@H](O)CO)c2cc1C [vitamin B2, Riboflavin] |  | substantial increase |  |
| NC(=O)c1cccnc1 [vitamin B3, Niacinamide] | no distinct increase |  |  |
| CC(C)(CO)[C@@H](O)C(=O)NCCC(=O)O [vitamin B5, Pantothenic acid] |  |  | Dialister relative abundances compared to control ([1]; at 0.2× and 5×): increase |
| O=C(O)CCCC[C@@H]1SC[C@@H]2NC(=O)N[C@@H]21 [vitamin B7, Biotin] | no distinct increase |  |  |
| Nc1nc2ncc(CNc3ccc(C(=O)N[C@@H](CCC(=O)O)C(=O)O)cc3)nc2c(=O)[nH]1 [vitamin B9, Folic acid] |  | no distinct increase |  |
| C=C1CC[C@H](O)C/C1=C/C=C1\CCC[C@]2(C)[C@@H]([C@H](C)CCCC(C)C)CC[C@@H]12 [vitamin D3, cholecalciferol] |  |  | Dialister relative abundance compared to placebo [3]: increase |
| CC1=C(C/C=C(\C)CCC[C@H](C)CCC[C@H](C)CCCC(C)C)C(=O)c2ccccc2C1=O [vitamin K1] |  | substantial increase |  |
| vitamin A |  |  | Dialister relative abundance compared to placebo [3]: increase |
